Literature values in patent US5211943A, “Pharmaceutical preparation for administration by percutaneous absorption and a method for their manufacture” (Chugai Seiyaku Kabushili Kaisha, priority 1986, dated 1993).

Key:
coronary vessels = conditions: Japanese Patent Publication 58-17463
[1] = oral; rapid increase of blood level
[2] = high temperature or high humidity, or in solution; Iyakuhin Kenkyu vol. 14, 1983

In the case of O=C(NCCO[N+](=O)[O-])c1cccnc1 [Nicorandil, N-(2-hydroxyethyl)nicotinamide nitrate], the “effect on coronary vessels, coronary veins and heart” value (coronary vessels) is given as “acts to dilate the coronary vessels and to inhibit contractions of the coronary veins, without much effect on the blood flow through the heart or on heart function”, the “side effects when given orally” value [1] is given as “orthostatic hypotension and headache” and the stability [2] is given as “relatively unstable”.
